Measurements taken from patent publication US7074789B2, “Kinase inhibitors” (Amgen Inc., priority 1999, dated 2006).

What was measured:
Assay type in all cases: biochemical
AKT = target: T1, AKT (Homo sapiens, UniProt Q9Y243); assay: Kinase inhibition assay (33P transfer), AKT; settings: Table 2, kinase inhibition class; read-out: AKT3-1
T1 construct: Kinases are expressed as either kinase domains or full length constructs; made in house
Procedure, shortened: (§1)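 Recombinant kinase-domain or full-length fusion proteins (GST or His tag) served as enzyme. Substrate poly(Glu,Tyr) 4:1 or poly(Arg,Ser) 3:1 was bound to the plate; transferred 33P was read by liquid scintillation following acid washing.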

Ret-1 = target: T2, Ret-1 (Homo sapiens, UniProt P07949); assay: Kinase inhibition assay (33P transfer), Ret; settings: Table 6, Ret-1 kinase inhibition class
T2 construct: Kinases are expressed as either kinase domains or full length constructs; made in house

Kdr = target: T3, Kdr (Homo sapiens, UniProt P35968); assay: Kinase inhibition assay (33P transfer), Kdr; settings: read-out: KDR-1
T3 construct: Kinases are expressed as either kinase domains or full length constructs; made in house
Procedure, shortened: as §1

Itk = target: T4, Itk (Homo sapiens, UniProt Q08881); assay: Kinase inhibition assay (33P transfer), Itk; settings: read-out: Itk-1
T4 construct: Kinases are expressed as either kinase domains or full length constructs; made in house
T4 sequence (Q08881 1-620): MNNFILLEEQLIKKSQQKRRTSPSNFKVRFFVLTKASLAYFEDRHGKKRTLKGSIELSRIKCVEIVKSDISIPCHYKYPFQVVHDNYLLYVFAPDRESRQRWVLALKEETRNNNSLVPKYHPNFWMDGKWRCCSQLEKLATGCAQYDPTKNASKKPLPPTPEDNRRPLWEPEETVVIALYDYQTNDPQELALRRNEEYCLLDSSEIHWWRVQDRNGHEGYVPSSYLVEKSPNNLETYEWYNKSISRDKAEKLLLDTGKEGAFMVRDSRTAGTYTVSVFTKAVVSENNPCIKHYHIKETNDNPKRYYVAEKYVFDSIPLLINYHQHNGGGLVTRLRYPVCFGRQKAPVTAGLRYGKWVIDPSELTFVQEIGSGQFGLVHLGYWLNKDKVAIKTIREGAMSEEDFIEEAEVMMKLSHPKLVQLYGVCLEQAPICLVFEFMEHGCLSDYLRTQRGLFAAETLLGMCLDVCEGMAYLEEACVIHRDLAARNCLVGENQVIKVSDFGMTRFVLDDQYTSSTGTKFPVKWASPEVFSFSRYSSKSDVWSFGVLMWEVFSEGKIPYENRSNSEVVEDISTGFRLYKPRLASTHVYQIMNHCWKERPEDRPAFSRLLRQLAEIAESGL
Procedure, shortened: (§2)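 Activity read as 33P incorporation from ATP into poly(Glu,Tyr) 4:1 or poly(Arg,Ser) 3:1 substrate bound to microtiter plates, measured by scintillation after acid washing. Enzymes were affinity-purified GST or polyHis fusions (kinase domain or full length) from E. coli or baculovirus; IC50 = 50% reduction in labelled phosphate.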

EGFR = target: T5, EGFR (Homo sapiens, UniProt P00533); assay: Kinase inhibition assay (33P transfer), EGFR; settings: Table 2, kinase inhibition class; read-out: EGFR-1
T5 construct: Kinases are expressed as either kinase domains or full length constructs; made in house
Procedure, shortened: as §2

ErbB4 = target: T6, ErbB4 (Homo sapiens, UniProt Q15303); assay: Kinase inhibition assay (33P transfer), ErbB4; settings: read-out: ErbB4-1
T6 construct: Kinases are expressed as either kinase domains or full length constructs; made in house

c-Met = target: T7, c-Met (Homo sapiens, UniProt P08581); assay: Kinase inhibition assay (33P transfer), c-Met; settings: Table 2, kinase inhibition class; read-out: Met-1
T7 construct: Kinases are expressed as either kinase domains or full length constructs; made in house
Procedure, shortened: as §2

FGFR1 = target: T8, FGFR1 (Homo sapiens, UniProt P11362); assay: Kinase inhibition assay (33P transfer), FGFR1; settings: read-out: FGFR1-1
T8 construct: Kinases are expressed as either kinase domains or full length constructs; made in house

Tek = target: T9, Tek (Homo sapiens, UniProt Q02763); assay: Kinase inhibition assay (33P transfer), Tek; settings: read-out: Tek-1
T9 construct: Kinases are expressed as either kinase domains or full length constructs; made in house
Procedure, shortened: as §2

Src = target: T10, Src (Homo sapiens, UniProt P12931); assay: Kinase inhibition assay (33P transfer), Src; settings: Table 6, Src-1 kinase inhibition class
T10 construct: Kinases are expressed as either kinase domains or full length constructs; made in house
Procedure, shortened: as §2

Flt-1 = target: T11, Flt-1 (Homo sapiens, UniProt P17948); assay: Kinase inhibition assay (33P transfer), Flt-1
T11 construct: Kinases are expressed as either kinase domains or full length constructs; made in house
Procedure, shortened: as §2

Lyn = target: T12, Lyn (Homo sapiens, UniProt P07948); assay: Kinase inhibition assay (33P transfer), Lyn; settings: Table 6, Lyn-1 kinase inhibition class
T12 construct: Kinases are expressed as either kinase domains or full length constructs; made in house
Procedure, shortened: as §2

IGFR-1 = target: T13, IGFR-1 (Homo sapiens, UniProt P08069); assay: Kinase inhibition assay, IGFR-1 (Table 2); settings: Table 2, kinase inhibition class
T13 construct: Kinases are expressed as either kinase domains or full length constructs; made in house

Hck-1 = target: T14, Hck-1 (Homo sapiens, UniProt P08631); assay: Kinase inhibition assay (33P transfer), Hck; settings: Table 6, Hck-1 kinase inhibition class
T14 construct: Kinases are expressed as either kinase domains or full length constructs; made in house

Lck = target: T15, Lck (Homo sapiens, UniProt P06239); assay: Kinase inhibition assay (33P transfer), Lck; settings: read-out: Lck-1
T15 construct: Kinases are expressed as either kinase domains or full length constructs; made in house
Procedure, shortened: as §1

Zap-70 = target: T16, Zap-70 (Homo sapiens, UniProt P43403); assay: Kinase inhibition assay (33P transfer), Zap-70; settings: read-out: Zap-1
T16 construct: Kinases are expressed as either kinase domains or full length constructs; made in house
T16 sequence (P43403 1-619): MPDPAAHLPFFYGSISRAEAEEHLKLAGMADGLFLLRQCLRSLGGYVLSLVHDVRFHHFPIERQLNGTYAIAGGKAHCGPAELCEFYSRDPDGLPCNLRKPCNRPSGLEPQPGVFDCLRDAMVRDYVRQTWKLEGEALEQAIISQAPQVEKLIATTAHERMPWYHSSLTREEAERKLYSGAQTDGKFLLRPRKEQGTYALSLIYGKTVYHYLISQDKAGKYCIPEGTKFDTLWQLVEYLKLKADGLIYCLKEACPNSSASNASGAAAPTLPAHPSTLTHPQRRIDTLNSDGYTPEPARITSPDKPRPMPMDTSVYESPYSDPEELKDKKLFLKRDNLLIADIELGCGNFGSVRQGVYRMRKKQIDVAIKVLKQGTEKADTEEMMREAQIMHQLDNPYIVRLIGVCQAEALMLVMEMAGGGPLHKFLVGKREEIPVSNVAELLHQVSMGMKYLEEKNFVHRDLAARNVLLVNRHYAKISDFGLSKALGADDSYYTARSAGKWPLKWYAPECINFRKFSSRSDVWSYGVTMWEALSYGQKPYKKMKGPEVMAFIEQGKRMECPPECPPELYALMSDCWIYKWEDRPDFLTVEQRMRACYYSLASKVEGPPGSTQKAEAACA
Procedure, shortened: as §1

ErbB2 = target: T17, ErbB2 (Homo sapiens, UniProt P04626); assay: Kinase inhibition assay (33P transfer), ErbB2; settings: read-out: ErbB2-2
T17 construct: Kinases are expressed as either kinase domains or full length constructs; made in house
Procedure, shortened: as §2

Fyn = target: T18, Fyn (Homo sapiens, UniProt P06241); assay: Kinase inhibition assay (33P transfer), Fyn; settings: read-out: Fyn-1
T18 construct: Kinases are expressed as either kinase domains or full length constructs; made in house
Procedure, shortened: as §2

PDGFRB = target: T19, PDGFRB (Homo sapiens, UniProt P09619); assay: Kinase inhibition assay (33P transfer), PDGFRB; settings: read-out: PDGFRB-1
T19 construct: Kinases are expressed as either kinase domains or full length constructs; made in house

Measured: IC50

T18 sequence (P06241 whole entry, species assumed, the tested form may be a part): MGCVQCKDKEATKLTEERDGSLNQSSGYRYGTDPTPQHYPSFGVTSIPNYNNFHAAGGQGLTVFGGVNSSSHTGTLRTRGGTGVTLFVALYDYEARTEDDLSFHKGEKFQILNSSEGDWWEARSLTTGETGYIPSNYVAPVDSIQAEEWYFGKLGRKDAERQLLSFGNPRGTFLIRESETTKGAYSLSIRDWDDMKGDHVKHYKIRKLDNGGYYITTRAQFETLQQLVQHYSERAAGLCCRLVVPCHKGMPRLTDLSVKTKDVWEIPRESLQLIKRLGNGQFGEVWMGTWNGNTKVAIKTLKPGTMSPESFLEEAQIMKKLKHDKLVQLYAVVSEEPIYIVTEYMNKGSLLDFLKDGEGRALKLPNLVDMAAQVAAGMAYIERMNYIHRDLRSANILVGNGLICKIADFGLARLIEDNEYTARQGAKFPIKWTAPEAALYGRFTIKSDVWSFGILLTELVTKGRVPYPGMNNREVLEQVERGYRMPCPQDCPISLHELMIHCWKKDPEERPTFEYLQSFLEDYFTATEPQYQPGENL
T1 sequence (Q9Y243 whole entry, the tested form may be a part): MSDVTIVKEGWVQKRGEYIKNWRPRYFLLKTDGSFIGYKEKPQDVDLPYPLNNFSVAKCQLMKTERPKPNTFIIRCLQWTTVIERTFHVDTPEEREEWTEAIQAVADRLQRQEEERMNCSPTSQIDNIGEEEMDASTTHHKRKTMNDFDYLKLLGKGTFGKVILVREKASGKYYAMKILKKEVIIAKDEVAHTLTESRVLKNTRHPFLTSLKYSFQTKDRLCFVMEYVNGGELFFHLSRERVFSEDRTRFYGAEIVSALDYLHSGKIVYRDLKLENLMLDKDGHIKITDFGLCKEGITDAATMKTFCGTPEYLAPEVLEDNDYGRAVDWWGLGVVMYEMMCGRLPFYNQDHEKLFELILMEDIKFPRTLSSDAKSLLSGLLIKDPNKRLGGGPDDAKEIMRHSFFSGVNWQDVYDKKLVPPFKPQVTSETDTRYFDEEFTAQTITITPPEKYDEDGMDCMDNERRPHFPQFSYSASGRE
T7 sequence (P08581 25-1390): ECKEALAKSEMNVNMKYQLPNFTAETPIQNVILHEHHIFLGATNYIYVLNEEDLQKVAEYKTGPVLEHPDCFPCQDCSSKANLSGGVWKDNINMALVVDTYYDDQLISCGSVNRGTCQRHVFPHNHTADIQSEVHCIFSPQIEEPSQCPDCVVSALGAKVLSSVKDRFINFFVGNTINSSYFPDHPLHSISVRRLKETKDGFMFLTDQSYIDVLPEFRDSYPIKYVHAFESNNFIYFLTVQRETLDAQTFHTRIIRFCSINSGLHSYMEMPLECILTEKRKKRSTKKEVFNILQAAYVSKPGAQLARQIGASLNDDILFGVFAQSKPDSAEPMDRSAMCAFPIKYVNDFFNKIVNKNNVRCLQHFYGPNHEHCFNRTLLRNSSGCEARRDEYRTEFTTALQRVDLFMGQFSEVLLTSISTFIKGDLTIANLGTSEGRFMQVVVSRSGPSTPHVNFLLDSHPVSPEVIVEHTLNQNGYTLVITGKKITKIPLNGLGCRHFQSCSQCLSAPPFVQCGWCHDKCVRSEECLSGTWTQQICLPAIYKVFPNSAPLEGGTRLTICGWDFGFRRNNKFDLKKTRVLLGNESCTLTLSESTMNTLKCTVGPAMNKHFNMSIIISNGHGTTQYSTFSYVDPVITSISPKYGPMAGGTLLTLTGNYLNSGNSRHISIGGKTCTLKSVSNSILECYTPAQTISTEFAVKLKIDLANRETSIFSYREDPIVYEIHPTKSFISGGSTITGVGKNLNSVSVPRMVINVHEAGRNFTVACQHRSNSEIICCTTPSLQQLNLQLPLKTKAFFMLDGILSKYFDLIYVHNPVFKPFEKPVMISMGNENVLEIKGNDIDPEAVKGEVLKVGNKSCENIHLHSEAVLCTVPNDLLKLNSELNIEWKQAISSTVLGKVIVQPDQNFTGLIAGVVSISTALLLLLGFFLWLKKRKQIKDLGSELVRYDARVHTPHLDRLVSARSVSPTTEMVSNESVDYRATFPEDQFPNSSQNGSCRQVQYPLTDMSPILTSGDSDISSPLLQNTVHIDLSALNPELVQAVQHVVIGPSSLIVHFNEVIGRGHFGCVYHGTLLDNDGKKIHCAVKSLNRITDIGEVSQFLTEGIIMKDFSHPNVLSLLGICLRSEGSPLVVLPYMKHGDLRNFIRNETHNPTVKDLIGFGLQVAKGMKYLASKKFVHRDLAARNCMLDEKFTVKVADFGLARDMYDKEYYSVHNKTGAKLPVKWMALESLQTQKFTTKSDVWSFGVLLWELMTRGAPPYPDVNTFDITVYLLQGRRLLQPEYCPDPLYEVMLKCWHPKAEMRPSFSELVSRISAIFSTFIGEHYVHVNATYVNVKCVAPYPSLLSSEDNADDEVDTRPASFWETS
T5 sequence (P00533 25-1210, species assumed): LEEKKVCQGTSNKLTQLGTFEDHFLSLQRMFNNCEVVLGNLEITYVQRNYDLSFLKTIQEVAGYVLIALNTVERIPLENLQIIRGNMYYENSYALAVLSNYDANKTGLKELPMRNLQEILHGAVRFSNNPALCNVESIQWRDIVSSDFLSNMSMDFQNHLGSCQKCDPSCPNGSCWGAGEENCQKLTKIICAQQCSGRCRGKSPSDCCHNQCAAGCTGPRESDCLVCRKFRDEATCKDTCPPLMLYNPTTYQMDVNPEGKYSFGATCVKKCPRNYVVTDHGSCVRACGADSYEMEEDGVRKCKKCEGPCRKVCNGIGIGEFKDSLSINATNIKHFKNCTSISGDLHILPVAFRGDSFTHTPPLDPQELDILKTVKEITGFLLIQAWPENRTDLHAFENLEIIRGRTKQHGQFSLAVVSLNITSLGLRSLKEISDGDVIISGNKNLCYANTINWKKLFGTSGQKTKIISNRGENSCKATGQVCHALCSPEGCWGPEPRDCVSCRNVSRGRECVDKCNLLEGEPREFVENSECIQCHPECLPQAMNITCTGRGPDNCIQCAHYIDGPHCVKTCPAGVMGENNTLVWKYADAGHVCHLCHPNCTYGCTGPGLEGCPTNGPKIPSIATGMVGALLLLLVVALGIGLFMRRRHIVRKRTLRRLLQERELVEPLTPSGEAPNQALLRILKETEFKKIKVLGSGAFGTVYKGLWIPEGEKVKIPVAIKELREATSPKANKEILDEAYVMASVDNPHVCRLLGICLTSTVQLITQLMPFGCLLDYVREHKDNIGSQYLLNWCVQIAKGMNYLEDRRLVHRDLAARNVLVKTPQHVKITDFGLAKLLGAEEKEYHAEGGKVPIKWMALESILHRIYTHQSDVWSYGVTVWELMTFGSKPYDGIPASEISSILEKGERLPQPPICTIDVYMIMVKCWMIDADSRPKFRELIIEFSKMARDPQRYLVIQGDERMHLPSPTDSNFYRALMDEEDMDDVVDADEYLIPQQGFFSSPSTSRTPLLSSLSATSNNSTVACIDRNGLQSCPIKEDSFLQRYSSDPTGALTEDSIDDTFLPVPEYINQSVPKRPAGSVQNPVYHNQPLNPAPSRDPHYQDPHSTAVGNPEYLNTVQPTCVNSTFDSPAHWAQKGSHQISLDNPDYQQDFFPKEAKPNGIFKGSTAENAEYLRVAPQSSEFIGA
T9 sequence (Q02763 23-1124, species assumed): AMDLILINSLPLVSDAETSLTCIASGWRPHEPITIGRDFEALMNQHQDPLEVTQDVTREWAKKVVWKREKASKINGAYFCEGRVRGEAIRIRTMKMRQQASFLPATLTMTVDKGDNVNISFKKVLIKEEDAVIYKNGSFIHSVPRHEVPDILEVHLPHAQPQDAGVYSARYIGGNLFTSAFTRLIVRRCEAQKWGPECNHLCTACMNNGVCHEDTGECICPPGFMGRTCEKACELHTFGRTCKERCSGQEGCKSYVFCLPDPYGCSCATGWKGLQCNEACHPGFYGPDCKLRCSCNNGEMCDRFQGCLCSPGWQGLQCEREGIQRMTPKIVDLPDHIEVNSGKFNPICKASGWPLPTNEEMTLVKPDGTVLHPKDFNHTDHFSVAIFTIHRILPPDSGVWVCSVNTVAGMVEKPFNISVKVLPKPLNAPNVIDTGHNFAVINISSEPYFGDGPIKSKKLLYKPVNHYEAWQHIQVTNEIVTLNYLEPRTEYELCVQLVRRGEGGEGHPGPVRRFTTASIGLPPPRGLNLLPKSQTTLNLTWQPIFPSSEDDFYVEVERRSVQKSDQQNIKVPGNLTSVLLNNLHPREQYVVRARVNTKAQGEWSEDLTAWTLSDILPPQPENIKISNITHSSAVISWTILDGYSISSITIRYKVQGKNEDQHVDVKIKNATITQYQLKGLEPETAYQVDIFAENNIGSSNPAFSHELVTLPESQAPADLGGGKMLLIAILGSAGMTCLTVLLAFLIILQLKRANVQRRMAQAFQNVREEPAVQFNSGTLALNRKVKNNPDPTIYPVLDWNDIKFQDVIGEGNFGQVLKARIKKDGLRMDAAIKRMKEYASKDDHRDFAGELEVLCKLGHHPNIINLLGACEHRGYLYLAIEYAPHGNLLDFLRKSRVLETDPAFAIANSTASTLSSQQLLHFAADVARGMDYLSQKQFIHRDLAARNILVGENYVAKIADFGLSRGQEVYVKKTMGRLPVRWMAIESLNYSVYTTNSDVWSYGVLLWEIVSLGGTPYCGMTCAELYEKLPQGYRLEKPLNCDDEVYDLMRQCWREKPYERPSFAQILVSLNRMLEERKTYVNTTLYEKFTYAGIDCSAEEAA

COc1cc(Nc2ncnc(-n3c(NCc4cccc(F)c4)nc4ccccc43)n2)cc(OC)c1OC [Compound 513]
< 0.798 µM: Ret-1 | Kdr | FGFR1 | Flt-1 | PDGFRB
6.98 to 8.97 µM: EGFR | Src | IGFR-1 | ErbB2 | Fyn
4.79 to 6.98 µM: ErbB4
0.798 to 4.79 µM: Lyn | Lck
> 8.97 µM: all other assays above

COc1cc(Nc2ncnc(Nc3ccc(Br)c4ccccc34)n2)cc(OC)c1OC [Compound 613]
< 0.829 µM: ErbB2 | PDGFRB
4.98 to 7.26 µM: Kdr | Lyn
7.26 to 9.33 µM: IGFR-1
0.829 to 4.98 µM: Ret-1 | EGFR | ErbB4 | FGFR1 | Lck
> 9.33 µM: all other assays above

COc1cc(Nc2ncnc(N3CCCc4ccc(C(F)(F)F)cc43)n2)cc(OC)c1OC [Compound 518]
0.867 to 5.2 µM: Lyn | ErbB2
7.58 to 9.75 µM: Ret-1 | Kdr | Tek
< 0.867 µM: EGFR
5.2 to 7.58 µM: Fyn
> 9.75 µM: all other assays above

COc1ccc(Nc2ncnc(-n3c(N)nc4ccccc43)n2)cc1 [Compound 656]
< 1.2 µM: Kdr | IGFR-1
> 13.5 µM: AKT | Zap-70
10.5 to 13.5 µM: Fyn
7.2 to 10.5 µM: Itk | EGFR | ErbB4 | Src | Lyn | Hck-1 | ErbB2
1.2 to 7.2 µM: all other assays above

COc1cc(Nc2ncnc(-n3c(NCc4ccc(Cl)cc4F)nc4ccccc43)n2)cc(OC)c1OC [Compound 606]
6.53 to 8.4 µM: IGFR-1 | ErbB2
4.48 to 6.53 µM: Flt-1 | Lyn | Lck
< 0.746 µM: Kdr
0.746 to 4.48 µM: Ret-1 | FGFR1 | PDGFRB
not listed: Tek
> 8.4 µM: all other assays above

COc1cc(Nc2ncnc(N(C)c3cccc4ccccc34)n2)cc(OC)c1OC [Compound 607]
< 0.958 µM: Ret-1 | Kdr | EGFR | Lyn | Lck
> 10.8 µM: AKT | Itk | c-Met | IGFR-1 | Zap-70
8.38 to 10.8 µM: Flt-1
not listed: Tek
0.958 to 5.75 µM: all other assays above

CCN(CC)CCOc1ccc(Nc2ncnc(Nc3cc(OC)c(OC)c(OC)c3)n2)cc1OC [Compound 602]
7.02 to 9.03 µM: Kdr
0.802 to 4.81 µM: EGFR | ErbB4 | Src | Lyn | Lck | ErbB2 | Fyn | PDGFRB
not listed: Tek
> 9.03 µM: all other assays above
